According to PubChem BioAssay (NCI):
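48-hour exposure; five concentrations; linearly interpolated endpoints. Abbreviation: GI50, concentration required for 50% inhibition of growth. TGI: concentration producing complete growth inhibition.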

Experiments:
Assay in all cases: DTP human tumour cell line panel, 48 h
EKVX NSCLC = test system: EKVX NSCLC
KM12 colon = test system: KM12 colon
M14 melanoma = test system: M14 melanoma
MCF7 breast = test system: MCF7 breast
NCI-H460 lung = test system: NCI-H460 lung
NCI-H522 lung = test system: NCI-H522 lung
OVCAR-8 ovarian = test system: OVCAR-8 ovarian
SF-295 CNS = test system: SF-295 CNS
SF-539 CNS = test system: SF-539 CNS
SK-MEL-5 melanoma = test system: SK-MEL-5 melanoma

Row | SMILES | GI50 (EKVX NSCLC) | TGI (EKVX NSCLC) | GI50 (KM12 colon) | TGI (KM12 colon) | GI50 (M14 melanoma) | TGI (M14 melanoma) | GI50 (MCF7 breast) | TGI (MCF7 breast) | GI50 (NCI-H460 lung) | TGI (NCI-H460 lung) | GI50 (NCI-H522 lung) | TGI (NCI-H522 lung) | GI50 (OVCAR-8 ovarian) | TGI (OVCAR-8 ovarian) | GI50 (SF-295 CNS) | TGI (SF-295 CNS) | GI50 (SF-539 CNS) | TGI (SF-539 CNS) | GI50 (SK-MEL-5 melanoma) | TGI (SK-MEL-5 melanoma)
1 | O=C1c2ccccc2-c2c1c1ccccc1c(=O)n2CCCNCCCCNCCCN1C(=O)c2ccccc2C2C(=O)c3ccccc3C21 (stereo unspecified) | 358 nM | 1050 nM | 270 nM | 1410 nM | 643 nM | 1530 nM | 36.1 nM | 1900 nM | 42.6 nM | 2390 nM | 9380 nM | 50000 nM | 24.1 nM | 986 nM | 64.7 nM | 872 nM | 91.9 nM | 759 nM | 939 nM | 3930 nM
2 | COc1cc(C(=O)Nc2cc(OC)c3ccn(C)c3c2)cc2c1C[C@]1(C)CC[C@@H](O)C(C)(C)[C@H]1O2 | 1870 nM | > 100000 nM | 2080 nM | > 100000 nM | 454 nM | 2900 nM | 612 nM | 15100 nM | 586 nM | > 100000 nM | 1440 nM | 7400 nM | 2690 nM | 58000 nM | 30.2 nM | 143 nM | 63.2 nM | 2220 nM | 384 nM | 1720 nM
3 | O=c1oc2ccc(Br)cc2c(=O)n1-c1ccc(I)cc1F | 594 nM | 5730 nM | 1660 nM | 4370 nM | 416 nM | 4390 nM | 709 nM | 5870 nM | 367 nM | 5570 nM | 277 nM | 1650 nM | 362 nM | 5980 nM | 1500 nM | 3120 nM | 403 nM | 4040 nM | 246 nM | 642 nM
4 | CC(C)(C)c1c2c(c(C(C)(C)C)c3c1OCN(Cc1ccccc1)C3)OCN(Cc1ccccc1)C2 |  | 41500 nM |  | 57800 nM |  | 29000 nM |  | 61600 nM |  | 28700 nM |  | 23200 nM |  | 77300 nM |  | 51600 nM |  | 31000 nM |  | 21000 nM
5 | O=C(O)c1ccc(C(=O)O)c(C(=O)Nc2ccc3c(c2)C(=O)c2ccccc2-3)c1 |  | > 100000 nM |  | > 100000 nM |  | > 100000 nM |  | > 100000 nM |  | > 100000 nM |  | > 100000 nM |  | > 100000 nM |  | > 100000 nM |  | > 100000 nM |  | > 100000 nM
6 | COc1ccc(-n2ccnc2-c2cc(OC)c(OC)c(OC)c2)cc1 | 34000 nM | > 100000 nM | 4590 nM | > 100000 nM | 2460 nM | > 100000 nM | 1550 nM | > 100000 nM | 2370 nM | > 100000 nM | 2920 nM | 8120 nM | 4710 nM | > 100000 nM | 1990 nM | 8350 nM | 3270 nM | 29100 nM | 1910 nM | 11100 nM
7 | CCCCCCCCC(=O)OCC(CS[As](C)C)OC(=O)CCCCCCCC (stereo unspecified) | 2450 nM | 19000 nM | 2770 nM | 13800 nM | 831 nM | 12700 nM | 477 nM | 8200 nM | 21700 nM | 58300 nM | 1110 nM |  | 1750 nM | 5300 nM | 3660 nM | 19400 nM | 490 nM | 1280 nM | 163 nM | 388 nM
8 | CN1C/C=C/CCOc2cccc(c2)-c2ccnc(n2)Nc2cccc(c2)C1 | 50.1 nM | 666 nM | 33.3 nM | 176 nM | 39.1 nM | 181 nM | 30.9 nM | 1170 nM | 34.7 nM | 352 nM | 52.2 nM | 233 nM | 41.2 nM | 1260 nM | 32.1 nM | 434 nM | 33.8 nM | 155 nM | 31.8 nM | 222 nM
9 | COc1cc(-c2c(C#N)c(N)nc(N3CCOCC3)c2C#N)cc(OC)c1OC | > 100000 nM | > 100000 nM | > 100000 nM | > 100000 nM | > 100000 nM | > 100000 nM | > 100000 nM | > 100000 nM | > 100000 nM | > 100000 nM | > 100000 nM | > 100000 nM | > 100000 nM | > 100000 nM | > 100000 nM | > 100000 nM | > 100000 nM | > 100000 nM | > 100000 nM | > 100000 nM
10 | NCOC(=O)Cc1ccc(Br)cc1 |  | > 100000 nM |  |  |  | > 100000 nM |  | > 100000 nM |  | > 100000 nM |  | > 100000 nM |  | > 100000 nM |  | > 100000 nM |  | > 100000 nM |  | > 100000 nM
11 | CC1OC(OC2C(OC3CCC4(C)C(CCC5(C)C4CC=C4C6CC(C)(C)CCC6(C(=O)O)CCC45C)C3(C)CO)OCC(O)C2O)C(O)C(O)C1O (stereo unspecified) |  | 40000 nM |  | 21700 nM |  |  |  | 1910 nM |  | 43000 nM |  | 28800 nM |  | 40100 nM |  | 32000 nM |  | 32800 nM |  | 36300 nM
12 | Cn1c(NCC(O)CN2CCCC2)cc(=O)n(C)c1=O (stereo unspecified) | > 100000 nM | > 100000 nM | > 100000 nM | > 100000 nM |  |  | > 100000 nM | > 100000 nM | > 100000 nM | > 100000 nM | > 100000 nM | > 100000 nM | > 100000 nM | > 100000 nM | > 100000 nM | > 100000 nM | > 100000 nM | > 100000 nM | > 100000 nM | > 100000 nM
13 | COc1cc([N+](=O)[O-])c(OC)cc1-c1nc2sc(Cl)cn2c1/C=N/NC1=NCCN1 | 2330 nM | 5640 nM | 833 nM | 2490 nM | 1390 nM | 2800 nM | 431 nM | > 100000 nM | 322 nM | > 100000 nM | 2930 nM | > 29700 nM |  |  | 2740 nM | 52800 nM | 184 nM | 352 nM | 830 nM | 2190 nM
14 | COc1cc(/C=C2\C[C@H]3[C@@H]4CC=C5C[C@@H](O)CC[C@]5(C)[C@H]4CC[C@]3(C)[C@H]2O)ccc1OCCCn1ccnc1 | 6060 nM | > 50000 nM | 1820 nM | 7200 nM |  |  | 2630 nM | 27700 nM | 1520 nM | 5110 nM | 22300 nM | > 50000 nM | 2620 nM | 16100 nM | 1550 nM | 6320 nM | 1050 nM | 2090 nM | 4150 nM | 12400 nM
